Measured values as given in ChEMBL document CHEMBL4196212, “Targeting Cytochrome P450 (CYP) 1B1 Enzyme with Four Series of A-Ring Substituted Estrane Derivatives: Design, Synthesis, Inhibitory Activity, and Selectivity” (J Med Chem, 2018).

Legend:
CYP1B1 [1] = biological target: T1, CYP1B1 (Homo sapiens, UniProt Q16678); assay: Inhibition of recombinant human CYP1B1 at 0.3 uM incubated for 45 mins using 7-ethyl-O-resorufin substrate in presence of NADPH regenerating system by fluorescence based ethoxyresorufin-O-deethylase assay; settings: recombinant human CYP1B1, probe 7-ethyl-O-resorufin (7-ethoxyresorufin)
T1 sequence (Q16678 whole entry): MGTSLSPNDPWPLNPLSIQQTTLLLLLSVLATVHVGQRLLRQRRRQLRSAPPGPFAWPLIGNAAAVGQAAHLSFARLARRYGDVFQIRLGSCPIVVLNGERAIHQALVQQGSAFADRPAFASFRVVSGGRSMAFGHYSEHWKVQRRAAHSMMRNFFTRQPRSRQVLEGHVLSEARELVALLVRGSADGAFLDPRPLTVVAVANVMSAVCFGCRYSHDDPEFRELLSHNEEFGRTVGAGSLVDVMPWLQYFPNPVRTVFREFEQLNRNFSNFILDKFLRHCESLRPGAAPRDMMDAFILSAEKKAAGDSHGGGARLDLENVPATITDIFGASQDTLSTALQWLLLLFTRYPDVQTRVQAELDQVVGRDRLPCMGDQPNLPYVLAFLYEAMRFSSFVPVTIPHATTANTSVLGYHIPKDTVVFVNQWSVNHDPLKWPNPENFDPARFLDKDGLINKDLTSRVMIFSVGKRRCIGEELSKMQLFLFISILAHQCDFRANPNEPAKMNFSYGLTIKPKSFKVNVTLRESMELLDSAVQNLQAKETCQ

CYP1B1 [2] = biological target: T1, CYP1B1; assay: Inhibition of recombinant human CYP1B1 at 3 uM incubated for 45 mins using 7-ethyl-O-resorufin substrate in presence of NADPH regenerating system by fluorescence based ethoxyresorufin-O-deethylase assay; settings: recombinant human CYP1B1, probe 7-ethyl-O-resorufin (7-ethoxyresorufin)
CYP1A1 [3] = biological target: T2, CYP1A1 (Homo sapiens, UniProt P04798); assay: Inhibition of recombinant human CYP1A1 at 0.3 uM incubated for 25 mins using 7-ethyl-O-resorufin substrate in presence of NADPH regenerating system by fluorescence based ethoxyresorufin-O-deethylase assay; type: ADME; settings: recombinant human CYP1A1, probe 7-ethyl-O-resorufin (7-ethoxyresorufin)
T2 sequence (P04798 whole entry): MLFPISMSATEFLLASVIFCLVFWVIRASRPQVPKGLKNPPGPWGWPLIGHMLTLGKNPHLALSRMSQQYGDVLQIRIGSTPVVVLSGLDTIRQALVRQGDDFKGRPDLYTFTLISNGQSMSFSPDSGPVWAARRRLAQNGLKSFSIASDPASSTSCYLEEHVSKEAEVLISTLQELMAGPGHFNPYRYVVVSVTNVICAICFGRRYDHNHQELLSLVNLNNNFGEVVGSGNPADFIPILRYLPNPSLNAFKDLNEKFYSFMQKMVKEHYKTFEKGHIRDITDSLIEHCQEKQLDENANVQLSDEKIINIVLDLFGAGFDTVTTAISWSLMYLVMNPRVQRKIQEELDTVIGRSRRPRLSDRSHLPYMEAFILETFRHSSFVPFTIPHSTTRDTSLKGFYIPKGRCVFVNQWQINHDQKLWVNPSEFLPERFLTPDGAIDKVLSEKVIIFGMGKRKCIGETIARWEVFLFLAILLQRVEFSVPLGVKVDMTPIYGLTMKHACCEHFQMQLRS

CYP1A1 [4] = biological target: T2, CYP1A1; assay: Inhibition of recombinant human CYP1A1 at 3 uM incubated for 25 mins using 7-ethyl-O-resorufin substrate in presence of NADPH regenerating system by fluorescence based ethoxyresorufin-O-deethylase assay; type: ADME; settings: recombinant human CYP1A1, probe 7-ethyl-O-resorufin (7-ethoxyresorufin)

| SMILES | inhibition at 0.75 h, 0.3 µM (CYP1B1 [1]) | inhibition at 0.75 h, 3 µM (CYP1B1 [2]) | inhibition at 25 min, 0.3 µM (CYP1A1 [3]) | inhibition at 25 min, 3 µM (CYP1A1 [4]) |
| --- | --- | --- | --- | --- |
| C#C[C@]1(O)CC[C@H]2[C@@H]3CCc4cc(OC)c(-c5ccc(OC)cc5)cc4[C@H]3CC[C@@]21C | 6% | 55% | 4% | 9% |
| CSc1ccc2c(c1)CC[C@@H]1[C@@H]2CC[C@]2(C)[C@@H](O)CC[C@@H]12 | 5% | 26% | – | – |
| C[C@]12CC[C@@H]3c4cc(-c5cccc(O)c5)c(O)cc4CC[C@H]3[C@@H]1CCC2=O | 92% | 103% | 10% | 39% |
| C[C@]12CC[C@@H]3c4cc(-c5cccc(O)c5)c(O)cc4CC[C@H]3[C@@H]1CC[C@@H]2O | 96% | 100% | 10% | 57% |
| C[C@]12CC[C@@H]3c4cc(-c5ccccc5)c(O)cc4CC[C@H]3[C@@H]1CCC2=O | 69% | 101% | 5% | 16% |
| C[C@]12CC[C@@H]3c4cc(-c5cccc(Cl)c5)c(O)cc4CC[C@H]3[C@@H]1CCC2=O | 74% | 100% | 5% | 11% |
| C[C@]12CC[C@@H]3c4cc(-c5ccc(F)c(F)c5)c(O)cc4CC[C@H]3[C@@H]1CCC2=O | 77% | 100% | 1% | 15% |
| C[C@]12CC[C@@H]3c4cc(-c5ccncc5)c(O)cc4CC[C@H]3[C@@H]1CCC2=O | – | 55% | – | – |
| COc1cccc(-c2cc3c(cc2O)CC[C@@H]2[C@@H]3CC[C@]3(C)C(=O)CC[C@@H]23)c1 | 48% | 81% | – | – |
| C[C@]12CC[C@@H]3c4cc(-c5cccc(N)c5)c(O)cc4CC[C@H]3[C@@H]1CCC2=O | 36% | 55% | – | – |
| COc1ccc(-c2cc3c(cc2OC)CC[C@@H]2[C@@H]3CC[C@]3(C)[C@@H](OC)CC[C@@H]23)cc1 | 11% | 20% | 1% | 5% |
| C[C@]12CC[C@@H]3c4cc(-c5ccc(Cl)cc5)c(O)cc4CC[C@H]3[C@@H]1CC[C@@H]2O | 96% | 99% | 12% | 63% |
| C[C@]12CC[C@@H]3c4ccc(SCc5cccnc5)cc4CC[C@H]3[C@@H]1CCC2=O | 48% | 87% | 9% | 36% |
| C[C@]12CC[C@@H]3c4ccc(S(C)(=O)=O)cc4CC[C@H]3[C@@H]1CCC2=O | 7% | 7% | – | – |
| C[C@]12CC[C@@H]3c4cc(-c5cccc(Cl)c5)c(O)cc4CC[C@H]3[C@@H]1CC[C@@H]2O | 91% | 100% | 16% | 51% |
| C[C@]12CC[C@@H]3c4ccc(S(C)(=O)=O)cc4CC[C@H]3[C@@H]1CC[C@@H]2O | 0% | 5% | – | – |
| COc1ccc(-c2cc3c(cc2O)CC[C@@H]2[C@@H]3CC[C@]3(C)[C@@H](O)CC[C@@H]23)cc1 | 97% | 100% | 14% | 51% |
| C[C@]12CC[C@@H]3c4cc(-c5ccc(O)cc5)c(O)cc4CC[C@H]3[C@@H]1CCC2=O | 19% | 30% | – | – |
| C[C@]12CC[C@@H]3c4cc(-c5ccc(F)cc5)c(O)cc4CC[C@H]3[C@@H]1CCC2=O | 71% | 101% | 2% | 8% |
| C[S+]([O-])c1ccc2c(c1)CC[C@@H]1[C@@H]2CC[C@]2(C)[C@@H](O)CC[C@@H]12 (stereo not given in full) | 10% | 25% | – | – |
| C[C@]12CC[C@@H]3c4cc(-c5cccc(F)c5)c(O)cc4CC[C@H]3[C@@H]1CC[C@@H]2O | 88% | 101% | 12% | 48% |
| C[C@]12CC[C@@H]3c4cc(-c5ccccc5)c(O)cc4CC[C@H]3[C@@H]1CC[C@@H]2O | 82% | 101% | 9% | 45% |
| CSc1ccc2c(c1)CC[C@@H]1[C@@H]2CC[C@]2(C)C(=O)CC[C@@H]12 | 14% | 34% | – | – |
| C[C@]12CC[C@@H]3c4cc(-c5cccnc5)c(O)cc4CC[C@H]3[C@@H]1CC[C@@H]2O | – | 100% | 53% | 77% |
| COc1ccc(-c2cc3c(cc2OC)CC[C@@H]2[C@@H]3CC[C@]3(C)C(=O)CC[C@@H]23)cc1 | 38% | 79% | 1% | 4% |
| C[C@]12CC[C@@H]3c4cc(-c5ccc(Cl)cc5)c(O)cc4CC[C@H]3[C@@H]1CCC2=O | 79% | 101% | 9% | 5% |
| C[C@]12CC[C@@H]3c4cc(-c5cccc(F)c5)c(O)cc4CC[C@H]3[C@@H]1CCC2=O | 67% | 101% | 3% | 23% |
| C[C@]12CC[C@@H]3c4cc(-c5ccc(F)c(F)c5)c(O)cc4CC[C@H]3[C@@H]1CC[C@@H]2O | 92% | 100% | 2% | 47% |
| C[S+]([O-])c1ccc2c(c1)CC[C@@H]1[C@@H]2CC[C@]2(C)C(=O)CC[C@@H]12 (stereo not given in full) | 16% | 57% | – | – |
| C[C@]12CC[C@@H]3c4cc(-c5cccnc5)c(O)cc4CC[C@H]3[C@@H]1CCC2=O | – | 90% | – | – |
